# What was measured:
# Mus musculus [1] = assay: Hypoglycemic activity in lean normal BALB/c mouse assessed as blood glucose level at 0.54 mmol/kg/day administered through diet for 7 days relative to time-matched control; format: functional
# Mus musculus [2] = assay: Antiobesity activity in lean normal BALB/c mouse assessed as change in average daily food intake at 0.54 mmol/kg/day administered through diet for 7 days relative to time-matched control; format: functional
# Mus musculus [3] = assay: Antiobesity activity in lean normal BALB/c mouse assessed as change in average daily weight at 0.54 mmol/kg/day administered through diet for 7 days relative to time-matched control; format: functional
# Mus musculus [4] = assay: Toxicity in lean normal BALB/c mouse assessed as overt signs of behavioural changes at equimolar dose of 0.5 mmol/kg galegine administered daily through diet for 7 days; format: organism-based; conditions: in vivo, po, 168 h
# Mus musculus [5] = assay: Antiobesity activity in ob/ob mouse model assessed as change in average daily weight at 0.26 mmol/kg/day administered through diet for 28 days relative to time-matched control; format: functional
# Mus musculus [6] = assay: Antiobesity activity in ob/ob mouse model assessed as change in average daily food intake at 0.26 mmol/kg/day administered through diet for 28 days relative to time-matched control; format: functional
# [7] = Metabolic stability in ob/ob mouse liver microsomes assessed as oxidative hydroxylation at 50 uM after 45 mins by HPLC-MS analysis; format: ADME, Microsome; conditions: 0.75 h
# Mus musculus [8] = assay: Hypoglycemic activity in ob/ob mouse model assessed as blood glucose level at 0.26 mmol/kg/day administered through diet for 28 days relative to time-matched control; format: functional
# Mus musculus [9] = assay: Antiobesity activity in high fat diet-induced obese BALB/c mouse model assessed as change in average daily body weight at 0.43 mmol/kg/day administered through diet for 28 days relative to time-matched control; format: functional
# Mus musculus [10] = assay: Antiobesity activity in high fat diet-induced obese BALB/c mouse model assessed as change in average daily food intake at 0.43 mmol/kg/day administered through diet for 28 days relative to time-matched control; format: functional
# Mus musculus [11] = assay: Hypoglycemic activity in high fat diet-induced obese BALB/c mouse model assessed as blood glucose level at 0.43 mmol/kg/day administered through diet for 28 days relative to time-matched control; format: functional
# Mus musculus [12] = assay: Antiobesity activity in lean normal BALB/c mouse assessed as change in average daily food intake at 0.59 mmol/kg/day administered through diet for 7 days relative to time-matched control; format: functional
# Mus musculus [13] = assay: Hypoglycemic activity in lean normal BALB/c mouse assessed as blood glucose level at 0.59 mmol/kg/day administered through diet for 7 days relative to time-matched control; format: functional
# Mus musculus [14] = assay: Antiobesity activity in lean normal BALB/c mouse assessed as change in average daily weight at 0.59 mmol/kg/day administered through diet for 7 days relative to time-matched control; format: functional
# Mus musculus [15] = assay: Antiobesity activity in ob/ob mouse model assessed as change in average daily weight at 0.24 mmol/kg/day administered through diet for 28 days relative to time-matched control; format: functional
# Mus musculus [16] = assay: Antiobesity activity in ob/ob mouse model assessed as change in average daily food intake at 0.24 mmol/kg/day administered through diet for 28 days relative to time-matched control; format: functional
# Mus musculus [17] = assay: Hypoglycemic activity in ob/ob mouse model assessed as blood glucose level at 0.24 mmol/kg/day administered through diet for 28 days relative to time-matched control; format: functional
# Mus musculus [18] = assay: Antiobesity activity in high fat diet-induced obese BALB/c mouse model assessed as change in average daily body weight at 0.42 mmol/kg/day administered through diet for 28 days relative to time-matched control; format: functional
# Mus musculus [19] = assay: Antiobesity activity in high fat diet-induced obese BALB/c mouse model assessed as change in average daily food intake at 0.42 mmol/kg/day administered through diet for 28 days relative to time-matched control; format: functional
# Mus musculus [20] = assay: Hypoglycemic activity in high fat diet-induced obese BALB/c mouse model assessed as blood glucose level at 0.42 mmol/kg/day administered through diet for 28 days relative to time-matched control; format: functional
# Mus musculus [21] = assay: Hypoglycemic activity in lean normal BALB/c mouse assessed as blood glucose level at 0.62 mmol/kg/day administered through diet for 7 days relative to time-matched control; format: functional
# Mus musculus [22] = assay: Antiobesity activity in lean normal BALB/c mouse assessed as change in average daily food intake at 0.62 mmol/kg/day administered through diet for 7 days relative to time-matched control; format: functional
# Mus musculus [23] = assay: Antiobesity activity in lean normal BALB/c mouse assessed as change in average daily weight at 0.62 mmol/kg/day administered through diet for 7 days relative to time-matched control; format: functional
# Mus musculus [24] = assay: Antiobesity activity in ob/ob mouse model assessed as change in average daily weight at 0.27 mmol/kg/day administered through diet for 28 days relative to time-matched control; format: functional
# Mus musculus [25] = assay: Antiobesity activity in ob/ob mouse model assessed as change in average daily food intake at 0.27 mmol/kg/day administered through diet for 28 days relative to time-matched control; format: functional
# Mus musculus [26] = assay: Hypoglycemic activity in ob/ob mouse model assessed as blood glucose level at 0.27 mmol/kg/day administered through diet for 28 days relative to time-matched control; format: functional
# Mus musculus [27] = assay: Antiobesity activity in high fat diet-induced obese BALB/c mouse model assessed as change in average daily body weight at 0.45 mmol/kg/day administered through diet for 28 days relative to time-matched control; format: functional
# Mus musculus [28] = assay: Antiobesity activity in high fat diet-induced obese BALB/c mouse model assessed as change in average daily food intake at 0.45 mmol/kg/day administered through diet for 28 days relative to time-matched control; format: functional
# Mus musculus [29] = assay: Hypoglycemic activity in high fat diet-induced obese BALB/c mouse model assessed as blood glucose level at 0.45 mmol/kg/day administered through diet for 28 days relative to time-matched control; format: functional
compound,measurement,setting,value
N=C(N)NCc1ccccc1,Activity,Mus musculus [1],60%
same,Activity,Mus musculus [2],-28.1%
same,Activity,Mus musculus [3],-10.4%
same,Activity,Mus musculus [4],Non-toxic
same,Activity,Mus musculus [5],-6.8%
same,Activity,Mus musculus [6],-29.3%
same,Activity,[7],Stable
same,Activity,Mus musculus [8],82%
same,Activity,Mus musculus [9],-10.6%
same,Activity,Mus musculus [10],-14.9%
same,Activity,Mus musculus [11],90%
N=C(N)NCc1ccc(Cl)cc1,Activity,Mus musculus [12],-34.7%
same,Activity,Mus musculus [13],59%
same,Activity,Mus musculus [14],-19.7%
same,Activity,Mus musculus [4],Non-toxic
same,Activity,Mus musculus [15],-11%
same,Activity,Mus musculus [16],-38.5%
same,Activity,Mus musculus [17],71%
same,Activity,Mus musculus [18],-7.3%
same,Activity,Mus musculus [19],-15.6%
same,Activity,Mus musculus [20],94%
N=C(N)NCc1ccc(F)cc1,Activity,Mus musculus [21],56%
same,Activity,Mus musculus [22],-27.8%
same,Activity,Mus musculus [23],-14.7%
same,Activity,Mus musculus [4],Non-toxic
same,Activity,Mus musculus [24],-8.7%
same,Activity,Mus musculus [25],-26.8%
same,Activity,Mus musculus [26],102%
same,Activity,Mus musculus [27],-7.8%
same,Activity,Mus musculus [28],-9.8%
same,Activity,Mus musculus [29],93%

# Source: ChEMBL document CHEMBL1136921, “Benzylguanidines and other galegine analogues inducing weight loss in mice” (J Med Chem, 2009)
